Measurements taken from article PMC7109127 (British Journal of Cancer, 2020).
Where “and” joins values, the source holds several entries; their conditions need not be identical. Equal entries are not always repeated. Where two headings read alike, the source gives them in different places.

Experiments:
[1] = TIVO-1; cited from earlier work
[2] = phase 1b/2 study, safety, DLT and MTD/RP2D (CTCAE v4.0)
Method: The RP2D was defined as the MTD.
(§1) The treatment schedule was modified as there was concern on tolerability of longer dosing in patients with underlying cirrhosis. […] Study treatment was continued until disease progression or unacceptable toxicity.
(§2) Safety assessments were done at baseline, on cycle 1 days 1 and 15, and on day 1 of each cycle thereafter. Tumour assessments were performed by computed tomography or magnetic resonance imaging at baseline and every 8 weeks thereafter. Confirmatory imaging was performed within 6 weeks in patients with complete response or partial response. AEs were assessed using the National Cancer Institute Common Terminology Criteria for Adverse Events (CTCAE) v4.0. Blood sample collection for pharmacokinetic (PK) and pharmacodynamic (PD) analysis was performed on cycle 1 days 1 and 15 pre-dose as well as 2 and 4 h post dose.

[3] = test system: metastatic renal cell carcinoma; settings: TIVO-1; cited from earlier work
[4] = phase 1b/2 study, plasma pharmacokinetics (LC-MS/MS, NCA and nonlinear mixed-effects model); type: in vivo, patients; parameters: AUC0-4: concentration or dose not given beside the values
Method: LC-MS/MS analysis of the extracted samples was performed using an Agilent Technologies (Santa Clara, California) HPLC system and the API 3000 mass spectrometer (Sciex, Framingham, MA) with electrospray ionisation. Chromatographic separation was achieved using a biphasic gradient over a Cortecs C18 column (2.1 × 50 mm^2, Waters Corporation, Milford, MA) preceded by a Cortecs C18+VanGuard Cartridge (2.1 × 5 mm^2, Waters Corporation). Analytes were detected using multiple reaction monitoring in positive ion mode.
A nonlinear mixed-effects model was developed using first-order conditional estimation with interaction (FOCE-I) with the Laplacian option selected. This estimator was chosen as it is more suitable to modelling sparse data sets. One- and two-compartment structural models were tested with first-order absorption, both with and without a separate bioavailability term. Estimates for inter-subject variability were tested on all PK parameters using exponential relationships and were included where they could be confidently estimated. Inter-occasion variability between cycle 1 day 1 and cycle 1 day 15 was also tested. The residual unexplained variability in drug concentrations was tested with additive, proportional, and combined additive and proportional error models. Model selection was performed on the basis of the negative log-likelihood objective function (OFV) and standard goodness-of-fit and diagnostic plots. The final model was composed of one disposition compartment with first-order absorption and elimination. […] To facilitate comparison with previous studies, AUCs from 0 to 4 and 0 to 24 h were calculated from each individual’s model-predicted PK profile. Similarly, the maximum concentration (Cmax) and time of maximum concentration in a given dosing interval (tmax) were estimated both from the original data and the model prediction. The analysis was performed with NONMEM 7.4.1 (ICON plc, Dublin, Ireland), integrated with PSN 4.6.0 (psn.sourceforge.net) and using the Pirana 2.9.2 interface (pirana-software.com).

[5] = in vivo
Method: The RP2D was defined as the MTD.
as §1, §2

[6] = background statement; cited from earlier work
[7] = healthy volunteers; cited from earlier work
sVEGFR-2 = settings: by day 27; 1 mg daily cohort; cited from earlier work
[8] = cited from earlier work
[9] = individual patient estimate (Subject ID in c0)
[10] = individual patient, Day 1, NCA and Observation
[11] = individual patient, Day 15, NCA and Observation
[12] = all solid tumours, 1 mg dose level

Structure (SMILES): COc1cc2nccc(Oc3ccc(NC(=O)Nc4cc(C)on4)c(Cl)c3)c2cc1OC [tivozanib]
- diarrhoea incidence [1]: 23%
- hypertension incidence [1]: 44%
- palmar–plantar erythrodysesthesia incidence [1]: 14%
- deaths due to toxicity ([2]; 27 patients): No deaths due to toxicity
- MTD/RP2D ([2]; per os once daily, 21 days on–7 days off, advanced HCC): 1 mg
- viral loads ([2]; two HBV-positive and three HCV-positive patients): remained stable
- overall response rate (ORR) [3]: 33.1%
- progression-free survival (PFS) [3]: 11.9 months
- tmax, Median ([4]; Day 1, 1 mg, NCA and observation): 4.067 h
- AUC(0-t) ([4]; human, plasma, oral, 1 mg, Day 1, 1 mg, Model prediction, read-out: AUC0–4, Mean): 14.3 ng·h/mL
- AUC(0-t) ([4]; human, plasma, oral, 1 mg, Day 1, 1 mg, Model prediction, read-out: AUC0–24, Mean): 176 ng·h/mL
- Cmax ([4]; human, plasma, oral, 1 mg, Day 1, 1 mg, Model prediction, read-out: Cmax, Mean): 8.75 ng/mL
- tmax ([4]; human, plasma, oral, 1 mg, Day 1, 1 mg, Model prediction, read-out: tmax, Median): 13.3 h
- AUC(0-t) ([4]; human, plasma, oral, 1 mg, Day 1, 1 mg, NCA and observation, read-out: AUC0–4, Mean): 14.2 ng·h/mL
- Cmax ([4]; human, plasma, oral, 1 mg, Day 1, 1 mg, NCA and observation, read-out: Cmax, Mean): 6.54 ng/mL
- tmax ([4]; human, plasma, oral, 1 mg, Day 1, 1 mg, NCA and observation, read-out: tmax, Median): 4.07 h
- AUC(0-t) ([4]; human, plasma, oral, 1 mg, Day 15, 1 mg, Model prediction, read-out: AUC0–4, Mean): 190 ng·h/mL
- AUC(0-t) ([4]; human, plasma, oral, 1 mg, Day 15, 1 mg, Model prediction, read-out: AUC0–24, Mean): 1100 ng·h/mL
- Cmax ([4]; human, plasma, oral, 1 mg, Day 15, 1 mg, Model prediction, read-out: Cmax, Mean): 50.7 ng/mL
- tmax ([4]; human, plasma, oral, 1 mg, Day 15, 1 mg, Model prediction, read-out: tmax, Median): 7 h
- AUC(0-t) ([4]; human, plasma, oral, 1 mg, Day 15, 1 mg, NCA and observation, read-out: AUC0–4, Mean): 184 ng·h/mL
- Cmax ([4]; human, plasma, oral, 1 mg, Day 15, 1 mg, NCA and observation, read-out: Cmax, Mean): 58.7 ng/mL
- tmax ([4]; human, plasma, oral, 1 mg, Day 15, 1 mg, NCA and observation, read-out: tmax, Median): 2.05 h
- Vd/F ([4]; human, plasma, oral, 1 mg, typical population value, read-out: Apparent Volume of Distribution (V/F)): 105 L
- Apparent systemic clearance [4, 9]: 0.99 L/h and 0.81 L/h and 0.80 L/h
- Apparent volume of distribution [4, 9]: 159 L
- AUC0-4 [4, 10]: 20.2 ng·h/mL and 21.6 ng·h/mL and 35.9 ng·h/mL and 27.7 ng·h/mL and 1.5 ng·h/mL and 11.0 ng·h/mL and 7.0 ng·h/mL and 16.2 ng·h/mL and 30.3 ng·h/mL and 18.0 ng·h/mL and 18.1 ng·h/mL and 10.6 ng·h/mL and 10.7 ng·h/mL and 16.6 ng·h/mL and 13.8 ng·h/mL and 6.8 ng·h/mL and 15.5 ng·h/mL and 10.3 ng·h/mL and 3.6 ng·h/mL and 0.6 ng·h/mL and 3.5 ng·h/mL and 21.5 ng·h/mL and 18.8 ng·h/mL and 8.9 ng·h/mL and 4.7 ng·h/mL and 24.5 ng·h/mL and 19.4 ng·h/mL
- Cmax [4, 10]: 8.57 ng/mL and 13.6 ng/mL and 16.3 ng/mL and 9.53 ng/mL and 1.42 ng/mL and 3.62 ng/mL and 2.78 ng/mL and 6.93 ng/mL and 11.8 ng/mL and 8.23 ng/mL and 6.82 ng/mL and 5.84 ng/mL and 4.7 ng/mL and 7.56 ng/mL and 4.71 ng/mL and 3.4 ng/mL and 5.18 ng/mL and 8.48 ng/mL and 1.4 ng/mL and 0.616 ng/mL and 2 ng/mL and 7.29 ng/mL and 7.79 ng/mL and 5.82 ng/mL and 2.97 ng/mL and 8.63 ng/mL and 10.6 ng/mL
- tmax [4, 10]: 4.067 h and 4.417 h and 4.05 h and 2.167 h and 4.083 h and 4.183 h and 4.017 h and 4.2 h and 4.033 h and 2.067 h and 4.133 h and 5.25 h and 7.667 h and 2.1 h and 4.35 h and 4.167 h
- AUC0-4 [4, 11]: 333.0 ng·h/mL and 558.5 ng·h/mL and 360.8 ng·h/mL and 205.7 ng·h/mL and 154.1 ng·h/mL and 177.6 ng·h/mL and 112.9 ng·h/mL and 103.0 ng·h/mL and 261.2 ng·h/mL and 156.5 ng·h/mL and 150.0 ng·h/mL and 134.8 ng·h/mL and 134.3 ng·h/mL and 148.1 ng·h/mL and 239.7 ng·h/mL and 175.8 ng·h/mL and 163.5 ng·h/mL and 154.7 ng·h/mL and 185.6 ng·h/mL and 106.3 ng·h/mL
- Cmax [4, 11]: 89.5 ng/mL and 201 ng/mL and 104 ng/mL and 58.8 ng/mL and 43.1 ng/mL and 47 ng/mL and 31.1 ng/mL and 32.3 ng/mL and 70.9 ng/mL and 61.2 ng/mL and 49.9 ng/mL and 33.3 ng/mL and 37.8 ng/mL and 69.4 ng/mL and 53.6 ng/mL and 43.4 ng/mL and 40.3 ng/mL and 38.7 ng/mL and 57.4 ng/mL and 47.3 ng/mL and 30.8 ng/mL
- tmax [4, 11]: 2.06 h and 2.01 h and 2.1 h and 2.03 h and 2.07 h and 2.12 h and 2 h and 2.02 h and 4.12 h and 4.09 h and 3.91 h
- Inter-individual variability (IIV) in CL/F ([4]; population model): 42.4 %CV
- Inter-individual variability (IIV) in V/F ([4]; population model): 45.8 %CV
- Inter-individual variability (IIV) in ka/F ([4]; population model): 57.5 %CV
- Apparent Systemic Clearance (CL/F) ([4]; typical population value): 0.803 L/h
- Apparent first-order absorption rate constant (ka/F) ([4]; typical population value): 0.239 h⁻¹
- Decreased appetite, grade 3 and 4 ([5]; human): 3.7%
- Diarrhoea, grade 3–4 ([5]; human): 0%
- Dysphonia, grade 3 and 4 ([5]; human): 0%
- Fatigue, grade 3–4 ([5]; human): 26%
- Hypertension, grade 3 and 4 ([5]; human): 11%
- Increased bilirubin, grade 3 and 4 ([5]; human): 7.4%
- Nausea, grade 3 and 4 ([5]; human): 0%
- PPEDS (palmar–plantar erythrodysesthesia syndrome), Total ([5]; human): 11%
- PPEDS, Total ([5]; human): 3 n
- Palmar–plantar erythrodysesthesia, grade 3 and 4 ([5]; human): 3.7%
- Stomatitis, grade 3 and 4 ([5]; human): 0%
- Vomiting, grade 3 and 4 ([5]; human): 0%
- dose reductions for toxicity [5]: six
- permanently discontinued from study treatment for toxicity [5]: four
- tolerability [5]: well tolerated
- liver toxicities or tissue accumulation [6]: no associated liver toxicities or tissue accumulation
- difference in total drug exposure with food consumption [7]: did not show a difference
- sVEGFR-2 decrease from baseline (sVEGFR-2): 28%
- Dry skin, any grade [8, 12]: 28%
- Fatigue, any grade [8, 12]: 55%
- Fatigue, grade 3–4 [8, 12]: 6%
- Hypertension, any grade [8, 12]: 39%
- Hypertension, grade 3–4 [8, 12]: 28%
- Palmar–plantar erythrodysesthesia, any grade [8, 12]: 22%
- maximum-tolerated dose (MTD) and RP2D ([8]; once daily, 4 weeks on–2 weeks off, advanced refractory solid malignancies): 1.5 mg
